This note sets out measurements from patent US20110039762A1, “TARGETED ANTIMICROBIAL MOIETIES” (C3 JIAN, INC., priority 2009, published 2011).

One experiment concerns microorganisms. Put plainly: Peptides having multiple activities (targeting/binding, antimicrobial, growth or phenotype altering). The source says:
In certain embodiments, peptides described herein can have multiple activities. Thus for example, a peptide can have both binding/targeting activity and antimicrobial activity. Such peptides can be used, e.g., in a chimeric construct, for any or all of these properties. Thus, for example, a peptide designated “B” in Table 8 can be used as a targeting peptide. If it is also designated G or M it can also be used for antimicrobial activity.

For another experiment, the system named is C. jejuni. Put plainly: Kill or inhibit growth/proliferation; morphology, biofilm and growth disruption (Tables 5, 6). Also: test concentration or dose not given here. Type of experiment: cell-based, Campylobacter jejuni. Details: key: A: Peptide aggregates; B: Less hyphal formation; Clumps; Diffuse clumps and small polyps; F: Diffuse growth; H: Thin; I: Growth inhibition; Microcolony formation; Rippled; Small polyps; Thick; W: Halo formation on top, microlonies on bottom.

A further experiment deals with S. epidermidis. Described as above. Type of experiment: cell-based, Staphylococcus epidermidis. On the set-up: key: A: Peptide aggregates; B: Less hyphal formation; Clumps; Diffuse clumps and small polyps; F: Diffuse growth; H: Thin; I: Growth inhibition; Microcolony formation; Rippled; Small polyps; Thick; W: Halo formation on top, microlonies on bottom.
A further experiment has as its system S. pneumoniae. The description is as above. Format: cell-based, Streptococcus pneumoniae. Details: key: A: Peptide aggregates; B: Less hyphal formation; Clumps; Diffuse clumps and small polyps; F: Diffuse growth; H: Thin; I: Growth inhibition; Microcolony formation; Rippled; Small polyps; Thick; W: Halo formation on top, microlonies on bottom. Also: test concentration or dose not given here.
Another experiment deals with MRSA. The description is as above. Type of experiment: cell-based, Methicillin-resistant Staphylococcus aureus. On the set-up: key: A: Peptide aggregates; B: Less hyphal formation; Clumps; Diffuse clumps and small polyps; F: Diffuse growth; H: Thin; I: Growth inhibition; Microcolony formation; Rippled; Small polyps; Thick; W: Halo formation on top, microlonies on bottom.

For a further experiment, the system named is M. luteus. Described as above. Format: cell-based, Micrococcus luteus. Details: key: A: Peptide aggregates; B: Less hyphal formation; Clumps; Diffuse clumps and small polyps; F: Diffuse growth; H: Thin; I: Growth inhibition; Microcolony formation; Rippled; Small polyps; Thick; W: Halo formation on top, microlonies on bottom.
In the next experiment the test system is B. subtilis. The experiment is described as above. Format: cell-based, Bacillus subtilis. On the set-up: key: A: Peptide aggregates; B: Less hyphal formation; Clumps; Diffuse clumps and small polyps; F: Diffuse growth; H: Thin; I: Growth inhibition; Microcolony formation; Rippled; Small polyps; Thick; W: Halo formation on top, microlonies on bottom. Also: test concentration or dose not given here.
The subject of the next experiment is C. jeikeium. Described as above. Format: cell-based, Corynebacterium jeikeium. Details: key: A: Peptide aggregates; B: Less hyphal formation; Clumps; Diffuse clumps and small polyps; F: Diffuse growth; H: Thin; I: Growth inhibition; Microcolony formation; Rippled; Small polyps; Thick; W: Halo formation on top, microlonies on bottom.
In the next experiment the test system is P. aeruginosa. The experiment is described as above. Type of experiment: cell-based, Pseudomonas aeruginosa. On the set-up: key: A: Peptide aggregates; B: Less hyphal formation; Clumps; Diffuse clumps and small polyps; F: Diffuse growth; H: Thin; I: Growth inhibition; Microcolony formation; Rippled; Small polyps; Thick; W: Halo formation on top, microlonies on bottom. Also: test concentration or dose not given here.

Experiment [1] concerns microorganisms (e.g., bacteria, yeasts, fungi). Put plainly: Targeting peptide binding to target microorganisms (Table 3). The following applies: microorganism(s) the targeting peptide binds, preferably 1x PBS.
The test system of a further experiment is C. albicans. Nature of the experiment: Kill or inhibit growth/proliferation; morphology, biofilm and growth disruption (Tables 5, 6). Also: test concentration or dose not given here. Type of experiment: cell-based, Candida albicans. On the set-up: key: A: Peptide aggregates; B: Less hyphal formation; Clumps; Diffuse clumps and small polyps; F: Diffuse growth; H: Thin; I: Growth inhibition; Microcolony formation; Rippled; Small polyps; Thick; W: Halo formation on top, microlonies on bottom.

Another experiment relates to E. coli. The description is as above. Type of experiment: cell-based, Escherichia coli. On the set-up: key: A: Peptide aggregates; B: Less hyphal formation; Clumps; Diffuse clumps and small polyps; F: Diffuse growth; H: Thin; I: Growth inhibition; Microcolony formation; Rippled; Small polyps; Thick; W: Halo formation on top, microlonies on bottom.
The test system of the next experiment is E. faecalis. The experiment is described as above. Format: cell-based, Enterococcus faecalis. On the set-up: key: A: Peptide aggregates; B: Less hyphal formation; Clumps; Diffuse clumps and small polyps; F: Diffuse growth; H: Thin; I: Growth inhibition; Microcolony formation; Rippled; Small polyps; Thick; W: Halo formation on top, microlonies on bottom. Also: test concentration or dose not given here.
Setting [2] is: peptide binding conducted in aqueous buffers varied by peptide solubility.

“Also recorded” adds a separate entry of the source.
For Organism, effect (morphology, biofilm and growth disruption) in this document: test concentration or dose not given here.
For Organism, effect in this document: test concentration or dose not given here.

For “PF-063: peptide having multiple activities (chain 1 IAAIIVLVLFQKGLLQIFNWILIQLQ; chain 2 IAAIIVLVLFQKGLLQIFNWILIQLQ; Peptide with targeting and/or antimicrobial activity)”, the Activities result in the experiment with microorganisms was “G B”. Moreover, the “Organism, effect” value in the experiment with C. jejuni was “C. jejuni (D)”; in the experiment on S. epidermidis, “S. epidermidis (R)”; in the experiment on S. pneumoniae, “S. pneumoniae (D)”; with MRSA, “MRSA (M)”; in the experiment with M. luteus, “M. luteus (R)”; with B. subtilis it was “B. subtilis (C)”. Moreover, the “Organism, effect” value in the experiment with C. jeikeium is reported as “C. jeikeium (D)”; in the experiment on P. aeruginosa, “P. aeruginosa (A)”.
For “PF-204: peptide having multiple activities (ALQKQDMNLPSVKNQLVFLKSTG; Peptide with targeting and/or antimicrobial activity)”, the Activities result in the experiment with microorganisms is “G B”. For the same substance, the “Organism, effect” value in the experiment with S. epidermidis is “S. epidermidis (C)”; in the experiment with M. luteus, “M. luteus (C)”; in the experiment with C. jeikeium, “C. jeikeium (D)”; in the experiment with P. aeruginosa it was “P. aeruginosa (H)”. Further, the “Target(s)” value in [1] (binding in aqueous buffers depending on peptide solubility) is given as “S. epidermidis; also recorded: P. mirabilis; also recorded: E. coli; also recorded: P. aeruginosa; also recorded: C. albicans; also recorded: C. jejuni”.
On to LNFRAENKILEKIHISLIDTVEGSA [PF-575], for which the Activities result in the experiment with microorganisms is “G B”. In addition, the “Organism, effect” value with C. jejuni is reported as “C. jejuni (R)”; with S. pneumoniae, “S. pneumoniae (A)”; with C. jeikeium it was “C. jeikeium (A)”; in the experiment with P. aeruginosa it was “P. aeruginosa (A)”. In addition, the “Target(s)” value in [1] (setting [2]) is “M. luteus and E. coli and C. albicans and MRSA and S. pneumoniae and E. faecalis and C. jeikeium”.
For the substance “PF-067: peptide having multiple activities (DLIVKVHICFVVKTASGYCYLNKREAQAAI; Peptide with targeting and/or antimicrobial activity)”, in the experiment with microorganisms, the Activities result is on record as “G B”. Moreover, the “Organism, effect” value is “C. jejuni (D)” in the experiment on C. jejuni; “S. epidermidis (D)” with S. epidermidis; “S. pneumoniae (D)” in the experiment with S. pneumoniae; “MRSA (M)” with MRSA; “M. luteus (R)” with M. luteus; “B. subtilis (C)” with B. subtilis. Besides, the “Organism, effect” value in the experiment on C. jeikeium is given as “C. jeikeium (D)”; in the experiment on P. aeruginosa it was “P. aeruginosa (A)”.
Take “PF-425: peptide having multiple activities (MMELVLKTIIGPIVVGVVLRIVDKWLNKDK; Peptide with targeting and/or antimicrobial activity)”: the “Organism, effect” value in the experiment on C. albicans is “C. albicans (A)”; in the experiment on E. coli it was “E. coli (C)”; in the experiment with C. jejuni, “C. jejuni (D)”; in the experiment with S. epidermidis, “S. epidermidis (D)”; in the experiment with S. pneumoniae it was “S. pneumoniae (D)”; in the experiment with MRSA it was “MRSA (D)”. For the same substance, the “Organism, effect” value was “E. faecalis (D)” in the experiment with E. faecalis and “P. aeruginosa (A)” in the experiment on P. aeruginosa. Further, the Activities result in the experiment on microorganisms is recorded as “G B”. Moreover, the “Target(s)” value in experiment [1] (setting [2]) was “S. epidermidis and M. luteus and E. coli and P. aeruginosa and C. albicans and MRSA and S. pneumoniae and C. jeikeium”.
Turning to “PF-474: peptide having multiple activities (chain 1 MHRNLVLVKMEPIPHIMIIANQIGIIIEKA; chain 2 MHRNLVLVKMEPIPHIMIIANQIGIIIEKA; Peptide with targeting and/or antimicrobial activity)”, the “Organism, effect” value in the experiment on C. albicans was “C. albicans (B)”; in the experiment on E. coli, “E. coli (C)”; with C. jejuni it was “C. jejuni (D)”; in the experiment with S. epidermidis, “S. epidermidis (C)”; in the experiment with S. pneumoniae it was “S. pneumoniae (D)”; with MRSA, “MRSA (D)”. Moreover, the “Organism, effect” value was “E. faecalis (C)” in the experiment on E. faecalis and “P. aeruginosa (A)” with P. aeruginosa. The Activities entry with microorganisms is listed as “G B”.
In the case of “PF-140: peptide having multiple activities (FHRRVIRASEWALTTRSFSTPLRSAAR; Peptide with targeting and/or antimicrobial activity)”, the “Organism, effect” value with C. albicans is reported as “C. albicans (B)”; with C. jejuni, “C. jejuni (D)”; in the experiment on S. epidermidis, “S. epidermidis (D)”; in the experiment with S. pneumoniae, “S. pneumoniae (D)”; with MRSA, “MRSA (M)”; with M. luteus, “M. luteus (R)”. For the same substance, the “Organism, effect” value is “C. jeikeium (D)” in the experiment on C. jeikeium and “P. aeruginosa (A)” with P. aeruginosa. In addition, in the experiment on microorganisms, the Activities entry was “G B”.
In the case of “PF-605: peptide having multiple activities (HYRWNTQWWKY; Peptide with targeting and/or antimicrobial activity)”, the “Organism, effect” value in the experiment on C. albicans is given as “C. albicans (B)”; in the experiment on E. coli, “E. coli (C)”; in the experiment with C. jejuni, “C. jejuni (R)”; in the experiment on S. epidermidis, “S. epidermidis (R)”; in the experiment on S. pneumoniae, “S. pneumoniae (D)”; with MRSA, “MRSA (C)”. The “Organism, effect” value is “E. faecalis (R)” in the experiment with E. faecalis and “P. aeruginosa (A)” in the experiment on P. aeruginosa. For the same substance, the Activities entry in the experiment on microorganisms is “G B”.
Take “PF-S003: peptide having multiple activities (ALALLKQDLLNFEGRGRIITSTYLQFNEGCVP; Peptide with targeting and/or antimicrobial activity)”: the “Organism, effect (morphology, biofilm and growth disruption)” value in the experiment with C. albicans was “C. albicans (A)”; in the experiment with C. jejuni it was “C. jejuni (D)”; in the experiment with S. epidermidis, “S. epidermidis (R)”; with S. pneumoniae, “S. pneumoniae (D)”; in the experiment on MRSA it was “MRSA (M)”; in the experiment on M. luteus, “M. luteus (R)”. Moreover, the “Organism, effect (morphology, biofilm and growth disruption)” value in the experiment on B. subtilis is recorded as “B. subtilis (A)”; in the experiment with C. jeikeium, “C. jeikeium (D)”; in the experiment on P. aeruginosa, “P. aeruginosa (A)”. Also, in the experiment with microorganisms, the Activities result is “G B”.
